In patent publication US6716628B2, “Chondrogenesis promoters and indolin-2-one derivatives” (Chugai Seiyaku Kabushiki Kaisha, priority 1999, dated 2004):

Experiments:
[1] = test system: common mouse chondrocyte and adipocyte precursor cell line (CL-1); test: Uptake of 35S-labeled sulfuric acid into CL-1; assay type: cell-based; settings: 10 μmol/L (A and F also 1 or 5 μmol/L), 48 h culture, uptake in final 24 h
Protocol: The above-mentioned cell line CL-1 was cultured in a 96-well cell culturing plate (Wallac Corp.) for a liquid scintillation counter (Wallac Corp.) to a cell density of 1000 per well. The medium used was α-MEM (GIBCO Corp.) containing 100 U/mL of penicillin (Meiji Seika Co., Ltd.), 100 μg/mL of streptomycin (Banyu Pharmaceutical Corp.) and 10% fetal bovine serum (INTERGEN Corp.). When the CL-1 cells reached confluency, the medium was exchanged with one containing 10 μmol/L of compounds A, B, C, D, E, F and G, and after 24 hours, ^35S-labeled sulfuric acid was added at 0.5 μCi per well and culturing was continued. For compounds A and F, a medium was also prepared with a concentration of 1 or 5 μmol/L. After 24 hours, the medium was discarded and the cell layer was fixed for 2 hours at room temperature using 0.2 mL of 5% paraformaldehyde (0.1 mol/L phosphate buffer solution (pH 7.4, Wako Pure Chemical Industries) containing 0.4% cetylpyridinium chloride (Wako Pure Chemical Industries). After discarding the fixing solution, it was washed once with the same solution and the washed solution was discarded. After adding 0.1 mL of scintillator (Wallac Corp.) to the cell layer and stirring, the radioactivity was measured with a scintillation counter (Wallac Corp.).

[2] = test system: common mouse chondrocyte and adipocyte precursor cell line (CL-1); test: Uptake of 35S-labeled sulfuric acid into CL-1; assay type: cell-based; settings: 10 μmol/L (A and F also 1 or 5 μmol/L), 48 h culture
articular cartilage = settings: cited from earlier work
[3] = test system: experimental animal models with induced arthritis; settings: administered intraarticularly; Lab. Invest. 78(2):133-142, 1998; cited from earlier work

Compound	differentiation of CL-1 to chondrocytes (from 35S-labeled sulfuric acid uptake) [1]	differentiation of CL-1 to adipocytes [2]	synovitis (articular cartilage; in vivo)	arthritis-induced loss of proteoglycans in articular cartilage [3]	chondrogenesis (articular cartilage; intraarticularly administered, Lab. Invest. 71(2):279-290, 1994)
Cc1ccc(NC(=O)C[C@]2(NC(=O)Nc3ccc(C)cc3)C(=O)N(CC(OCCF)OCCF)c3ccccc32)cc1 [Compound F]	clearly promote	clearly suppress	–	–	–
Cc1ccc(NC(=O)C[C@]2(NC(=O)Nc3ccc(C)cc3)C(=O)N(CC(OCCCl)OCCCl)c3ccccc32)cc1 [Compound G, 3R)-1-(2,2-bis(2-chloroethoxy)ethyl)-3-((4-methylphenyl) 3-(N′-(4-methylphenyl)ureido)indolin-2-one]	clearly promote	clearly suppress	–	–	–
3R)-1-(2,2-diisopropoxyethyl)-3-((4-methylphenyl) aminocarbonylmethyl)-3-(N′-(4-methylphenyl)ureido)indolin-2-one [Compound E]	clearly promote	clearly suppress	–	–	–
TGF-β	–	–	provoke synovitis	–	–
TGF-β1: one isoform of TGF-β (Transforming growth factor β)	–	–	–	suppresses	promote chondrogenesis
CCOC(CN1C(=O)[C@](CC(=O)Nc2ccc(N(C)C)cc2)(NC(=O)Nc2ccc(C)cc2)c2ccccc21)OCC [Compound C]	clearly promote	clearly suppress	–	–	–
COC(CN1C(=O)C(CC(=O)Nc2ccc(C)cc2)(NC(=O)Nc2ccc(C)cc2)c2ccccc21)OC (stereo not drawn) [Compound D]	clearly promote	clearly suppress	–	–	–
CCOC(CN1C(=O)[C@](CC(=O)Nc2ccc(CC)cc2)(NC(=O)Nc2ccc(C)cc2)c2ccccc21)OCC [Compound B, (3R)-1-(2,2-diethoxyethyl)-3-(4-ethylphenyl)aminocarbonylmethyl-3-(N′-(4-methylphenyl)ureido)indolin-2-one]	clearly promote	clearly suppress	–	–	–
